Entries after “also recorded” stand apart in the source; their conditions may differ.
Key:
[1] = Solubility of API/dyes with ACA monomers (visual); type: physicochemical; conditions: typically 5.0 mg in 100 ul monomer, 24 h; for Solubility of CBZ in the monomer (blend): cabazitaxel
From the text: Solubility and degree of polymerization were monitored visually.
Where the result is given as ‘soluble’, the API was soluble in the choose monomer with no visual residue, and there can be used as a combination to prepare API loaded nanoparticles. If the results are given as insoluble or partially, it is an indication that this combination cannot be used to prepared API loaded nanoparticles.

LLC-PK1 = assay: Alcohol toxicity, MTT cell viability assay, LLC-PK1; type: cell-based, porcine; conditions: 24 h, vs untreated control
Procedure: (§1) MTT cell viability assay.
(§2) Alcohol toxicity is disclosed in Table 3: Alcohol toxicity was assessed by exposure of the cells to a given concentration of alcohol to a limit of 3 wt %. Cell activity was determined after 24 h and compared to an untreated control. Data is reported as percentage remaining cell activity (vs control) in 3% alcohol in three individual cell lines. The greater the percentage of remaining activity, the lower the toxicity of the alcohol to the cell line. Thus, Hep G2 cells exposed to 3 wt % 2-ethylhexanol retained 91.2% activity, whereas Hep G2 cells exposed to 3 wt % 2-ethylbutanol retained only 74.6% activity. Thus 2-ethylhexanol is less toxic to Hep G2 cells than 2-ethylbutanol.

Hep G2 = assay: Alcohol toxicity, MTT cell viability assay, Hep G2; type: cell-based, human; conditions: 24 h, vs untreated control
Procedure: as §1, §2

IMR-90 = assay: Alcohol toxicity, MTT cell viability assay, IMR-90; type: cell-based, human; conditions: 24 h, vs untreated control
Procedure: as §1, §2

[2] = system: Hep G2 cell line and LLC-PK1
Procedure: Cell lines: The cell lines were used for determining alcohol cytotoxicity Hep G2 (Human liver cancer cell line), LLC-PK1 (Porcine kidney cell line) and IMR-90 (Human lung fibroblast cell line). All medium was fortified with 10% (w/v) fetal calf serum albumin (Sigma) and 100 units/ml penicillin/streptomycin (PenStrep®, Sigma). All cell lines were obtained from ATCC and were routinely tested for mycoplasma. Cells growing in 24- or 96-well plates were incubated with serial dilutions of the alcohol for 24 h, at 37° C. in an atmosphere of 5% CO2. The toxicity was assessed the commonly used MTT (3-(4,5-dimethylthiazol-2-yl)-2,5-diphenyltetrazolium bromide) cell viability assay.
MTT cell viability assay. The cells were incubated for 24 with the different nanoparticles/substances. The cell medium was then aspirated and exchanged with 100 μl of medium containing a final concentration of 250 μg MTT/ml. The incubation was continued for 3 h at 37° C. for formation of the formazan-particles, which were dissolved in DMSO with 1% (v/v) NH4Cl. The absorbance was read in a plate reader (Biosys Ltd, Essex, UK) at 570 nm, and background from absorbance at 650 nm was subtracted.

Row | Compound | Solubility of CBZ in the monomer (blend) [1] | Solubility of Alpelisib in the monomer (blend) [1] | Solubility of Mupirocin in the monomer (blend) [1] | Solubility of Oxaliplatin in the monomer (blend) [1] | Cell activity remaining at 3.00 wt % alcohol (%), LLC-PK1 (LLC-PK1) | Cell activity remaining at 3.00 wt % alcohol (%), Hep G2 (Hep G2) | Cell activity remaining at 3.00 wt % alcohol (%), IMR-90 (IMR-90) | other results
1 | C=C(C#N)C(=O)OCCCCCCC [1-HPCA, 1-heptyl cyanoacrylate] | Soluble | Soluble | Insoluble | Insoluble | – | – | – | Solubility of Belinostat in the monomer (blend) [1]: Soluble; Solubility of Docetaxil in the monomer (blend) [1]: Soluble
2 | C=C(C#N)C(=O)OCCc1ccccc1 [2-PECA, 2-phenylethyl cyanoacrylate] | dissolves | dissolves | – | dissolves | – | – | – | –
3 | CCCCCC(C)O (stereo not drawn) [2-heptanol] | – | – | – | – | 81.1% | 73.9% | 50.7% | –
4 | CCC(O)CC [3-pentanol] | – | – | – | – | 78.6% | 89.7% | 84.6% | –
5 | C=C(C#N)C(=O)OCCC(C)(C)C [3,3-DMBCA, 3,3-dimethyl-1 butyl cyanoacrylate] | Soluble | Soluble | Insoluble | Insoluble | – | – | – | –
6 | CCC(CC)CO [2-ethylbutanol (control), 2-ethylbutanol, reference compound] | – | – | – | – | 86.2% | 74.6% | 69.1% | –
7 | C=C(C#N)C(=O)OC(C)CCCCC (stereo not drawn) [2-HPCA, 2-heptyl cyanoacrylate] | Soluble | Soluble | Soluble; also recorded: able to dissolve | Insoluble | – | – | – | –
8 | CC(C)(C)CCO [3,3-dimethylbutanol] | – | – | – | – | 98.2% | 84.8% | 81.7% | –
9 | C=C(C#N)C(=O)OCC(CC)CC [EBCA (control), 2-ethylbutyl cyanoacrylate, reference compound] | – | – | – | – | – | – | – | Solubility of Belinostat in the monomer (blend) [1]: not
10 | CCCCCO [1-pentanol] | – | – | – | – | 83.4% | 63.3% | 57.1% | –
11 | C=C(C#N)C(=O)OCCC(C)C [3-MBCA, 3-methylbutyl cyanoacrylate] | Soluble | Soluble | Insoluble | Insoluble | – | – | – | –
12 | CCCCCCCO [1-heptanol] | – | – | – | – | 61.8% | 72.3% | 58.3% | –
13 | 1-butanol [1-butanol (control), reference compound] | – | – | – | – | 81.8% | 61.8% | 59.7% | –
14 | C=C(C#N)C(=O)OC(CC)CC [3-PCA, 3-pentyl cyanoacrylate] | Soluble | Soluble | Soluble; also recorded: able to dissolve | Insoluble | – | – | – | –
15 | CCCCC(O)CC (stereo not drawn) [3-heptanol] | – | – | – | – | 96.4% | 81.4% | 81.7% | –
16 | C=C(C#N)C(=O)OCCCCC [1-PCA, 1-pentyl cyanoacrylate] | Soluble | Soluble | Insoluble | Insoluble | – | – | – | –
17 | OCCc1ccccc1 [2-phenylethanol] | – | – | – | – | 1.1% | 0.9% | 0.6% | Toxicity at 3% alcohol [2]: significant toxicity
18 | CC(C)CCO [3-methylbutanol] | – | – | – | – | 94.3% | 72.4% | 67.6% | –
19 | C=C(C#N)C(=O)OCCCCCCCC [OCA (control), 1-octyl cyanoacrylate, reference compound] | – | – | insoluble | – | – | – | – | –
20 | C=C(C#N)C(=O)OC(CC)CCCC (stereo not drawn) [3-HPCA, 3-heptyl cyanoacrylate] | Soluble | Soluble | Partially | Insoluble | – | – | – | –
21 | CCCCCCCCO [1-octanol (control), 1-octanol, reference compound] | – | – | – | – | 1.8% | 69.8% | 0.9% | –
22 | CCCCC(CC)CO (stereo not drawn) [2-ethylhexanol] | – | – | – | – | 79.8% | 91.2% | 7.9% | –

Source: patent US12357581B2, “Nanoparticles comprising copolymeric or homopolymeric compounds which comprise cyanoacrylate subunits” (SINTEF TTO AS, priority 2019, dated 2025)
